Target: T1, hTSHR (Homo sapiens, UniProt P16473)
T1 construct: expressed in transfected cells
Assay: hTSHR TR-FRET cAMP Assay (inhibition of M22-stimulated cAMP production)
Assay type: cell-based
Settings: Expi293F Inducible cells stably expressing hTSHR; cAMP HTRF; stimulated with EC80 of anti-TSHR antibody M22; 15 min compound preincubation, 30 min at 37° C.; read-out: Activity (IC50 bins)
In short: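 Readout was a cAMP HTRF ratio of 655/620 nm after lysis, scaled between the EC80 M22 signal (0% inhibition) and no-agonist vehicle (100%). Frozen induced Expi293F-hTSHR cells saw test compounds (0.5% DMSO) for 15 min at 37 °C before 30 min of M22 stimulation at EC80.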

T1 sequence (P16473 21-764): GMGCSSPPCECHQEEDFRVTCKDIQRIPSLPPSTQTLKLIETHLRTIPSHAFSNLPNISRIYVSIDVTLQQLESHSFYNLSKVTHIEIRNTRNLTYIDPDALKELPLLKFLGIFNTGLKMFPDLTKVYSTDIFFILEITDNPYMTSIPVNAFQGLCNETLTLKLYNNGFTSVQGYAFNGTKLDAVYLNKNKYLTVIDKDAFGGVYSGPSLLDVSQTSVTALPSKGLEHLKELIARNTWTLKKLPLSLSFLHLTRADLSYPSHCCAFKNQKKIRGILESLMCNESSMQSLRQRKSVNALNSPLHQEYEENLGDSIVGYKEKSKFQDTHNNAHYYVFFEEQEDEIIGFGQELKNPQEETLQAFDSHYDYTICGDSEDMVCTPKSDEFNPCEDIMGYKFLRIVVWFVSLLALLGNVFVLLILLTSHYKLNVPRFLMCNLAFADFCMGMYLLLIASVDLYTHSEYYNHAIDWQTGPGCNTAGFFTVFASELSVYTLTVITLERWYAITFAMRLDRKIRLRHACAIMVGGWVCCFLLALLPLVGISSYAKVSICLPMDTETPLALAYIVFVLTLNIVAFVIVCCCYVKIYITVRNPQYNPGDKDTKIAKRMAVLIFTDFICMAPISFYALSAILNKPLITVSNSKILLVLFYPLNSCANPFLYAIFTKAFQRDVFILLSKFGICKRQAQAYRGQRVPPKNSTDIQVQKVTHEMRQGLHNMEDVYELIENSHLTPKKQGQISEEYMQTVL

Row | Structure (SMILES) | IC50 [nM]
1 | C[C@@H](c1cccc(CC(F)(F)F)c1)n1c(=O)cnc2cc(NC(=O)NC(C)(C)C)ccc21 [Example 102, (S)-1-(tert-butyl)-3-(2-oxo-1-(1-(3-(2,2,2-trifluoroethyl)phe-nyl)ethyl)-1,2-dihydroquinoxalin-6-yl)urea] | 100 to 1000
2 | C[C@H]1Oc2cc(NC(=O)NC(C)(C)C)ccc2N(Cc2cccc(OC(F)F)c2)C1=O [Example 160, (R)-1-(tert-butyl)-3-(4-(3-(difluoro-methoxy)benzyl)-2-methyl-3-oxo-3,4-dihydro-2H-benzo [b][1,4]oxazin-7-yl)urea] | < 100
3 | CN1Cc2cc(NC(=O)NC(C)(C)C)ccc2N(Cc2cccc(Cl)c2)C1=O [Example 47, 1-(tert-butyl)-3-(1-(3-chlorobenzyl)-3-methyl-2-oxo-1,2,3,4-tetrahydroquinazolin-6-yl)urea] | < 100
4 | C[C@H]1Oc2cc(NC(=O)NC3CCCCC3)ccc2N(Cc2cccc(C(F)(F)F)n2)C1=O [Example 228, (R)-1-cyclohexyl-3-(2-methyl-3-oxo-4-((6-(trifluoromethyl)pyridin-2-yl)methyl)-3,4-dihydro-2H-benzo[b][1,4]oxazin-7-yl)urea] | < 100
5 | CC(C)(C)NC(=O)Nc1ccc2c(c1)OCC(=O)N2Cc1cccc2cn[nH]c12 [Example 76, 1-(4-((1H-indazol-7-y1)methyl)-3-oxo-3,4-dihydro-2H-benzo[b][1,4]oxa-zin-7-yl)-3-(tert-butyl)urea] | > 1000
6 | CC(C)(C)NC(=O)Nc1ccc2c(c1)OCC(=O)N2Cc1cccc(C(O)CC(F)(F)F)c1 (centres unmarked) [Example 80, 1-(tert-butyl)-3-(3-oxo-4-(3-(3,3,3-trifluoro-1-hydroxypropyl)ben-zyl)-3,4-dihydro-2H-benzo[b][1,4]oxa-zin-7-yl)urea] | 100 to 1000
7 | CC(C)(C)NC(=O)Nc1ccc2c(c1)CCC(=O)N2Cc1cc(Cl)ccc1Cl [Example 24, 3-tert-butyl-1-{1-[(2,5-dichlorophenyl)methyl]-2-oxo-3,4-dihydroquinolin-6-yl}urea] | < 100
8 | C[C@H]1Oc2cc(NC(=O)NC(C)(C)C)ccc2N(Cc2cccc([C@@H](O)C(F)(F)F)c2)C1=O [Example 174, 1-(tert-butyl)-3-((R)-2-methyl-3-oxo-4-(3-((R)-2,2,2-trifluoro-1-hydroxyethyl)benzyl)-3,4-dihydro-2H-benzo [b][1,4]oxazin-7-yl)urea] | 100 to 1000
9 | C[C@@H](c1ccccc1C#N)N1C(=O)CCc2cc(NC(=O)NC(C)(C)C)ccc21 [Example 61, (S)-1-(tert-butyl)-3-(1-(1-(2-cyanophenyl)ethyl)-2-oxo-1,2,3,4-tetrahydroquinolin-6-yl)urea] | 100 to 1000
10 | C[C@@H](c1cccc(OC(F)(F)F)c1)n1c(=O)cnc2cc(NC(=O)CCc3cccc(C(F)(F)F)c3)ccc21 [Example 202, (S)-N-(2-oxo-1-(1-(3-(trifluoromethoxy)phenyl)ethyl)-1,2-dihydroquinoxalin-6-yl)-3-(3-(trifluoromethyl)phenyl) propanamide] | < 100
11 | CC(c1cccc2ncccc12)n1c(=O)cnc2cc(NC(=O)NC(C)(C)C)ccc21 (centres unmarked) [Example 252, 1-(tert-butyl)-3-(2-oxo-1-(1-(quinolin-5-yl)ethyl)-1,2-dihydro-quinoxalin-6-yl)urea] | > 1000
12 | C[C@@H](c1cccc(C(C)(C)C)c1)n1c(=O)cnc2cc(NC(=O)NC(C)(C)C)ccc21 [Example 138, (S)-1-(tert-butyl)-3-(1-(1-(3-(tert-butyl)phenyl)ethyl)-2-oxo-1,2-dihydroquinoxalin-6-yl)urea] | 100 to 1000
13 | CC(C)(C)NC(=O)Nc1ccc2c(c1)OCC(=O)N2Cc1cccc(Cl)c1 [Example 33, 3-tert-butyl-1-{4-[(3-chlorophenyl)methyl]-3-oxo-2H-1,4-benzoxazin-7-yl}urea] | < 100
14 | C[C@@H](c1cccc(Cl)c1)n1c(=O)cnc2cc(NC(=O)NC(C)(C)C)c(C#N)cc21 [Example 361, 3-tert-butyl-1-{1-[(1S)-1-(3-chlorophenyl)ethyl]-7-cyano-2-oxoquinoxalin-6-yl}urea] | 100 to 1000
15 | C[C@H]1Oc2cc(NC(=O)NC3(C)CC(F)(F)C3)ccc2N(Cc2cccc(C(F)(F)F)n2)C1=O [Example 231, (R)-1-(3,3-difluoro-1-methylcyclobutyl)-3-(2-methyl-3-oxo-4-((6-(trifluoromethyl)pyridin-2-yl)methyl)-3,4-dihydro-2H-benzo[b][1,4]oxazin-7-yl)urea] | 100 to 1000
16 | C[C@@H]1Oc2cc(NC(=O)NC(C)(C)C)ccc2N(Cc2cccc(C(F)(F)F)c2)C1=O [Example 82] | 100 to 1000
17 | C[C@@H](c1cccc(Cl)c1)n1c(=O)cnc2cc(NC(=O)NC(C)(C)C)c(F)cc21 [Example 357, (S)-1-(tert-butyl)-3-(1-(1-(3-chlorophenyl)ethyl)-7-fluoro-2-oxo-1,2-dihydroquinoxalin-6-yl) Urea] | 100 to 1000
18 | COC[C@H]1Oc2cc(NC(=O)NC(C)(C)C)ccc2N(Cc2ccccc2)C1=O [Example 289, (R)-1-(4-benzyl-2-(methoxymethyl)-3-oxo-3,4-dihydro-2H-benzo[b][1,4]oxazin-7-yl)-3-(tert-butyl)urea] | > 1000

Row | Structure (SMILES) | IC50 [nM]
19 | CC(C)(C)CC(=O)Nc1ccc2c(c1)CCC(=O)N2Cc1ccccc1 [Example 285, N-(1-benzyl-2-oxo-3,4-dihydroquinolin-6-yl)-3,3-dimethylbutanamide] | > 1000
20 | CC(C)(C)NC(=O)Nc1ccc2c(c1)CCC(=O)N2C(CO)c1ccccc1 (centres unmarked) [Example 30, 1-(tert-butyl)-3-(1-(2-hydroxy-1-phenylethyl)-2-oxo-1,2,3,4-tetrahydroquinolin-6-yl)urea] | > 1000
21 | C[C@@H](c1cccc(OC(F)(F)F)c1)n1c(=O)cnc2cc(NC(=O)NC(C)(C)C)c(F)cc21 [Example 339, (S)-1-(tert-butyl)-3-(7-fluoro-2-oxo-1-(1-(3-(trifluoromethoxy)phenyl)ethyl)-1,2-dihydroquinoxalin-6-yl)urea] | 100 to 1000
22 | C[C@@H](c1ccccc1)N1C(=O)CCc2cc(NC(=O)NC(C)(C)C)c(C(F)(F)F)cc21 [Example 343, (S)-1-(tert-butyl)-3-(2-oxo-1-(1-phenylethyl)-7-(trifluoromethyl)-1,2,3,4-tetrahydroquinolin-6-yl) urea] | < 100
23 | CC(c1cccc(C(F)(F)F)c1)N1C(=O)N(C)Cc2cc(NC(=O)NC(C)(C)C)ccc21 (centres unmarked) [Example 271, 1-(tert-butyl)-3-(3-methyl-2-oxo-1-(1-(3-(trifluoromethyl)phenyl)ethyl)-1,2,3,4-tetrahydroquinazolin-6-yl)urea] | > 1000
24 | C[C@H]1Oc2c(cc(C(F)(F)F)c(NC(=O)NC(C)(C)C)c2F)N(Cc2cccc(C(F)F)c2)C1=O [Example 356, (R)-1-(tert-butyl)-3-(4-(3-(difluoromethyl)benzyl)-8-fluoro-2-methyl-3-oxo-6-(trifluoromethyl)-3,4-dihydro-2H-benzo[b][1,4]oxazin-7-yl)urea] | 100 to 1000
25 | CC(C)(C)NC(=O)Nc1ccc2c(c1)ncc(=O)n2Cc1cccc(CC(F)(F)F)c1 [Example 94, 1-(tert-butyl)-3-(2-oxo-1-(3-(2,2,2-trifluoro-ethyl)benzyl)-1,2-dihydro-quinoxalin-6-yl)urea] | 100 to 1000
26 | CC(c1nc(Cl)ccc1Cl)n1c(=O)cnc2cc(NC(=O)NC(C)(C)C)ccc21 (centres unmarked) [Example 254, 1-(tert-butyl)-3-(1-(1-(3,6-dichloropyridin-2-yl)ethyl)-2-oxo-1,2-dihydro-quinoxalin-6-yl)urea] | 100 to 1000
27 | C[C@@H](c1cccc(OCC2CCOCC2)c1)n1c(=O)cnc2cc(NC(=O)NC(C)(C)C)ccc21 [Example 117, (S)-1-(tert-butyl)-3-(2-oxo-1-(1-(3-((tetrahydro-2H-pyran-4-yl)methoxy)phenyl)eth-yl)-1,2-dihydroquinoxalin-6-yl)urea] | > 1000
28 | C[C@@H](c1cc(Cl)ccc1Cl)n1c(=O)cnc2cc(NC(=O)NC(C)(C)C)ccc21 [Example 130, (S)-1-(tert-butyl)-3-(1-(1-(2,5-dichlorophenyl)ethyl)-2-oxo-1,2-dihydroquinoxalin-6-yl)urea] | 100 to 1000
29 | C[C@H]1Oc2cc(NC(=O)NC(C)(C)C)ccc2N(Cc2cc(C(F)(F)F)ccc2C#N)C1=O [Example 83, (R)-1-(tert-butyl)-3-(4-(2-cyano-5-(trifluoromethyl)benzyl)-2-methyl-3-oxo-3,4-dihydro-2H-benzo[b][1,4]oxazin-7-yl)urea] | > 1000
30 | O=C(Nc1ccc2c(c1)ncc(=O)n2Cc1ccccc1)C1CCCC1 [Example 197, N-(1-benzyl-2-oxo-1,2 dihydroquinoxalin-6-yl)cyclopentanecar-boxamide] | > 1000
31 | Cc1ccc(C#N)c(CN2C(=O)[C@@H](C)Oc3cc(NC(=O)NC(C)(C)C)ccc32)c1 [Example 87, (R)-1-(tert-butyl)-3-(4-(2-cyano-5-methylbenzyl)-2-methyl-3-oxo-3,4-dihydro-2H-benzo[b][1,4]oxazin-7-yl)urea] | > 1000
32 | CC(C)(CC(F)(F)F)NC(=O)Nc1ccc2c(c1)ncc(=O)n2Cc1cccc(OC(F)(F)F)c1 [Example 243, 1-(2-oxo-1-(3-(trifluoromethoxy)enzyl)-1,2-dihydroquinoxalin-6-yl)-3-(4,4,4-trifluoro-2-methylbutan-2-yl)urea] | 100 to 1000
33 | C[C@@H](c1ccc2c(c1)OCCC2)n1c(=O)cnc2cc(NC(=O)NC(C)(C)C)ccc21 [Example 152, (S)-1-(tert-butyl)-3-(1-(1-(chroman-7-yl)ethyl)-2-oxo-1,2-dihydroquinoxalin-6-yl)urea] | > 1000
34 | Cc1cccc(CN2C(=O)CCc3cc(NC(=O)NC(C)(C)C)ccc32)c1F [Example 48, 1-(tert-butyl)-3-(1-(2-fluoro-3-methylbenzyl)-2-oxo-1,2,3,4-tetrahydroquinolin-6-yl)urea] | < 100
35 | C[C@@H](c1cc(F)ccc1F)n1c(=O)cnc2cc(NC(=O)NC(C)(C)C)ccc21 [Example 148, (S)-1-(tert-butyl)-3-(1-(1-(2,5-difluorophenyl)ethyl)-2-oxo-1,2-dihydroquinoxalin-6-yl)urea] | 100 to 1000
